Reference: ChEMBL document CHEMBL1201862, “PubChem BioAssay data set” (2004)
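How tested: cells in 96-well plates exposed to compound for 48 hours at five concentrations. Abbreviation: GI50, concentration required for 50% inhibition of growth.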 The source made the active and inactive calls. No stated cut-off is given here; in the data, active = GI50 up to about 1.1 µM and inactive = higher.

How the values were obtained:
Experiment in all cases: inhibition of tumour cell growth, NCI panel, 48 h
[1] = tested on: NCI-H23
[2] = tested on: MDA-MB-231
[3] = tested on: A549
[4] = tested on: PC-3
[5] = tested on: HL-60
[6] = tested on: NCI/ADR-RES
[7] = tested on: MDA-N
[8] = tested on: KM12
[9] = tested on: SF-539
[10] = tested on: MDA-MB-435
[11] = tested on: M14
[12] = tested on: TK-10
[13] = tested on: U-251
[14] = tested on: OVCAR-8
[15] = tested on: NCI-H522
[16] = tested on: BT-549
[17] = tested on: COLO 205
[18] = tested on: Malme-3M
[19] = tested on: HOP-92
[20] = tested on: A498
[21] = tested on: SN12C
[22] = tested on: UACC-62
[23] = tested on: SNB-19
[24] = tested on: SW-620
[25] = tested on: T47D
[26] = tested on: OVCAR-4
[27] = tested on: SNB-75
[28] = tested on: DU-145
[29] = tested on: SF-295
[30] = tested on: HCT-15
[31] = tested on: Hs-578T
[32] = tested on: EKVX
[33] = tested on: K562
[34] = tested on: HT-29
[35] = tested on: MCF7
[36] = tested on: LOX IMVI
[37] = tested on: UACC-257
[38] = tested on: RXF 393
[39] = tested on: HCT-116
[40] = tested on: CAKI-1
[41] = tested on: SK-OV-3
[42] = tested on: OVCAR-3
[43] = tested on: IGROV-1
[44] = tested on: RPMI-8226
[45] = tested on: NCI-H226
[46] = tested on: SK-MEL-2
[47] = tested on: UO-31
[48] = tested on: SF-268
[49] = tested on: MOLT-4
[50] = tested on: SK-MEL-5
[51] = tested on: HOP-62
[52] = tested on: SR
[53] = tested on: 786-0
[54] = tested on: SK-MEL-28
[55] = tested on: OVCAR-5
[56] = tested on: ACHN
[57] = tested on: NCI-H460
[58] = tested on: HCC 2998
[59] = tested on: CCRF-CEM

O=C(O)CNC(=O)C1NC(C(F)(F)F)(C(F)(F)F)OC1(C(F)(F)F)C(F)(F)F (configuration not stated)
GI50 [1]: > 100 µM (inactive)
GI50 [2]: > 100 µM (inactive)
GI50 [3]: > 100 µM (inactive)
GI50 [4]: > 100 µM (inactive)
GI50 [5]: > 100 µM (inactive)
GI50 [6]: > 100 µM (inactive)
GI50 [7]: > 100 µM (inactive)
GI50 [8]: > 100 µM (inactive)
GI50 [9]: > 100 µM (inactive)
GI50 [10]: > 100 µM (inactive)
GI50 [11]: > 100 µM (inactive)
GI50 [12]: > 100 µM (inactive)
GI50 [13]: > 100 µM (inactive)
GI50 [14]: > 100 µM (inactive)
GI50 [15]: > 100 µM (inactive)
GI50 [16]: > 100 µM (inactive)
GI50 [17]: > 100 µM (inactive)
GI50 [18]: > 100 µM (inactive)
GI50 [19]: > 100 µM (inactive)
GI50 [20]: > 100 µM (inactive)
GI50 [21]: > 100 µM (inactive)
GI50 [22]: > 100 µM (inactive)
GI50 [23]: > 100 µM (inactive)
GI50 [24]: > 100 µM (inactive)
GI50 [25]: > 100 µM (inactive)
GI50 [26]: > 100 µM (inactive)
GI50 [27]: > 100 µM (inactive)
GI50 [28]: > 100 µM (inactive)
GI50 [29]: 92.3 µM (inactive)
GI50 [30]: > 100 µM
GI50 [31]: > 100 µM (inactive)
GI50 [32]: > 100 µM (inactive)
GI50 [33]: > 100 µM (inactive)
GI50 [34]: > 100 µM (inactive)
GI50 [35]: > 100 µM (inactive)
GI50 [36]: > 100 µM (inactive)
GI50 [37]: > 100 µM (inactive)
GI50 [38]: > 100 µM (inactive)
GI50 [39]: > 100 µM (inactive)
GI50 [40]: > 100 µM (inactive)
GI50 [41]: > 100 µM (inactive)
GI50 [42]: > 100 µM (inactive)
GI50 [43]: > 100 µM (inactive)
GI50 [44]: > 100 µM (inactive)
GI50 [45]: > 100 µM (inactive)
GI50 [46]: > 100 µM (inactive)
GI50 [47]: > 100 µM (inactive)
GI50 [48]: > 100 µM (inactive)
GI50 [49]: > 100 µM (inactive)
GI50 [50]: > 100 µM (inactive)
GI50 [51]: > 100 µM (inactive)
GI50 [52]: > 100 µM (inactive)
GI50 [53]: > 100 µM (inactive)
GI50 [54]: > 100 µM (inactive)
GI50 [55]: > 100 µM (inactive)
GI50 [56]: > 100 µM (inactive)
GI50 [57]: > 100 µM (inactive)

CCC1c2[nH]c3ccccc3c2C[C@H]2C(=O)N3CCC[C@H]3C(=O)N12 (some centres not stated)
GI50 [58]: > 100 µM (inactive)
GI50 [1]: > 100 µM (inactive)
GI50 [2]: > 100 µM (inactive)
GI50 [3]: > 100 µM (inactive)
GI50 [4]: 37.4 µM (inactive)
GI50 [5]: > 100 µM (inactive)
GI50 [6]: > 100 µM (inactive)
GI50 [7]: > 100 µM (inactive)
GI50 [8]: 71.1 µM (inactive)
GI50 [10]: > 100 µM (inactive)
GI50 [11]: > 100 µM (inactive)
GI50 [12]: > 100 µM (inactive)
GI50 [13]: 92.5 µM (inactive)
GI50 [14]: > 100 µM (inactive)
GI50 [15]: 75.7 µM (inactive)
GI50 [16]: > 100 µM (inactive)
GI50 [17]: > 100 µM (inactive)
GI50 [18]: 42.5 µM (inactive)
GI50 [19]: > 100 µM (inactive)
GI50 [20]: > 100 µM (inactive)
GI50 [21]: > 100 µM (inactive)
GI50 [22]: 70.6 µM (inactive)
GI50 [23]: > 100 µM (inactive)
GI50 [24]: 92.9 µM (inactive)
GI50 [25]: 67.8 µM (inactive)
GI50 [26]: > 100 µM (inactive)
GI50 [28]: > 100 µM (inactive)
GI50 [29]: > 100 µM (inactive)
GI50 [30]: 53.7 µM
GI50 [31]: > 100 µM (inactive)
GI50 [32]: > 100 µM (inactive)
GI50 [33]: > 100 µM (inactive)
GI50 [34]: > 100 µM (inactive)
GI50 [35]: > 100 µM (inactive)
GI50 [36]: > 100 µM (inactive)
GI50 [37]: 48.6 µM (inactive)
GI50 [38]: > 100 µM (inactive)
GI50 [39]: 60.7 µM (inactive)
GI50 [40]: > 100 µM (inactive)
GI50 [41]: > 100 µM (inactive)
GI50 [42]: > 100 µM (inactive)
GI50 [43]: > 100 µM (inactive)
GI50 [44]: 50.9 µM (inactive)
GI50 [45]: > 100 µM (inactive)
GI50 [46]: > 100 µM (inactive)
GI50 [47]: > 100 µM (inactive)
GI50 [48]: > 100 µM (inactive)
GI50 [49]: 97.7 µM (inactive)
GI50 [50]: 30.4 µM (inactive)
GI50 [51]: > 100 µM (inactive)
GI50 [52]: 59.3 µM (inactive)
GI50 [53]: > 100 µM (inactive)
GI50 [54]: > 100 µM (inactive)
GI50 [55]: > 100 µM (inactive)
GI50 [56]: > 100 µM (inactive)

O=C(OCc1ccccc1)N1CCNCCNCCN(C(=O)OCc2ccccc2)CCNCC1
GI50 [2]: 16.1 µM (inactive)
GI50 [3]: 63.4 µM (inactive)
GI50 [4]: 41.6 µM (inactive)
GI50 [5]: 8.2 µM (inactive)
GI50 [6]: 50.5 µM (inactive)
GI50 [7]: 16.2 µM (inactive)
GI50 [8]: 29.6 µM (inactive)
GI50 [59]: 18.8 µM (inactive)
GI50 [9]: 18.5 µM (inactive)
GI50 [10]: 16.1 µM (inactive)
GI50 [11]: 16.6 µM (inactive)
GI50 [12]: 24.8 µM (inactive)
GI50 [13]: 17.9 µM (inactive)
GI50 [14]: 17.3 µM (inactive)
GI50 [15]: 15.7 µM (inactive)
GI50 [16]: 60.7 µM (inactive)
GI50 [17]: 13.6 µM (inactive)
GI50 [18]: 20.1 µM (inactive)
GI50 [19]: 20.6 µM (inactive)
GI50 [20]: 20.8 µM (inactive)
GI50 [21]: 47.4 µM (inactive)
GI50 [22]: 17.7 µM (inactive)
GI50 [23]: 68.5 µM (inactive)
GI50 [24]: 17.1 µM (inactive)
GI50 [25]: 17.1 µM (inactive)
GI50 [26]: 41 µM (inactive)
GI50 [27]: 21.5 µM (inactive)
GI50 [28]: > 100 µM (inactive)
GI50 [29]: 16.4 µM (inactive)
GI50 [30]: 18.7 µM
GI50 [31]: 19.1 µM (inactive)
GI50 [32]: 24 µM (inactive)
GI50 [33]: 13 µM (inactive)
GI50 [34]: 12.1 µM (inactive)
GI50 [35]: 17.8 µM (inactive)
GI50 [36]: 16.3 µM (inactive)
GI50 [37]: 16.5 µM (inactive)
GI50 [39]: 14 µM (inactive)
GI50 [40]: 20 µM (inactive)
GI50 [41]: > 100 µM (inactive)
GI50 [42]: 56.9 µM (inactive)
GI50 [43]: 32.1 µM (inactive)
GI50 [44]: 19.5 µM (inactive)
GI50 [45]: > 100 µM (inactive)
GI50 [46]: 17.5 µM (inactive)
GI50 [47]: 12.7 µM (inactive)
GI50 [49]: 16.7 µM (inactive)
GI50 [50]: 14.1 µM (inactive)
GI50 [51]: 36.7 µM (inactive)
GI50 [52]: 14.1 µM (inactive)
GI50 [53]: 14.3 µM (inactive)
GI50 [54]: 15.3 µM (inactive)
GI50 [55]: 33.3 µM (inactive)
GI50 [56]: 39.9 µM (inactive)
GI50 [57]: 21.2 µM (inactive)
